Experimental data reported in US20110039762A1, “TARGETED ANTIMICROBIAL MOIETIES” (C3 JIAN, INC., priority 2009, published 2011).
Entries after “also recorded” stand apart in the source; their conditions may differ.

Assays:
S. epidermidis = test: Kill or inhibit growth/proliferation; morphology, biofilm and growth disruption (Tables 5, 6); type: cell-based, Staphylococcus epidermidis; parameters: key: A: Peptide aggregates; B: Less hyphal formation; Clumps; Diffuse clumps and small polyps; F: Diffuse growth; H: Thin; I: Growth inhibition; Microcolony formation; Rippled; Small polyps; Thick; W: Halo formation on top, microlonies on bottom; also: test concentration or dose not given here
MRSA = test: as above; type: cell-based, Methicillin-resistant Staphylococcus aureus; parameters: key: A: Peptide aggregates; B: Less hyphal formation; Clumps; Diffuse clumps and small polyps; F: Diffuse growth; H: Thin; I: Growth inhibition; Microcolony formation; Rippled; Small polyps; Thick; W: Halo formation on top, microlonies on bottom
[1] = tested on: microorganisms (e.g., bacteria, yeasts, fungi); test: Targeting peptide binding to target microorganisms (Table 3); details: preferably 1x PBS; for Target(s) (microorganisms bound by the targeting peptide): peptide binding in aqueous buffers varied by peptide solubility
C. jeikeium = test: Kill or inhibit growth/proliferation; morphology, biofilm and growth disruption (Tables 5, 6); type: cell-based, Corynebacterium jeikeium; parameters: key: A: Peptide aggregates; B: Less hyphal formation; Clumps; Diffuse clumps and small polyps; F: Diffuse growth; H: Thin; I: Growth inhibition; Microcolony formation; Rippled; Small polyps; Thick; W: Halo formation on top, microlonies on bottom; also: test concentration or dose not given here
microorganisms = test: Peptides having multiple activities (targeting/binding, antimicrobial, growth or phenotype altering)
Source text: In certain embodiments, peptides described herein can have multiple activities. Thus for example, a peptide can have both binding/targeting activity and antimicrobial activity. Such peptides can be used, e.g., in a chimeric construct, for any or all of these properties. Thus, for example, a peptide designated “B” in Table 8 can be used as a targeting peptide. If it is also designated G or M it can also be used for antimicrobial activity.

E. faecalis = test: Kill or inhibit growth/proliferation; morphology, biofilm and growth disruption (Tables 5, 6); type: cell-based, Enterococcus faecalis; parameters: key: A: Peptide aggregates; B: Less hyphal formation; Clumps; Diffuse clumps and small polyps; F: Diffuse growth; H: Thin; I: Growth inhibition; Microcolony formation; Rippled; Small polyps; Thick; W: Halo formation on top, microlonies on bottom; also: test concentration or dose not given here
S. pneumoniae = test: as above; type: cell-based, Streptococcus pneumoniae; parameters: key: A: Peptide aggregates; B: Less hyphal formation; Clumps; Diffuse clumps and small polyps; F: Diffuse growth; H: Thin; I: Growth inhibition; Microcolony formation; Rippled; Small polyps; Thick; W: Halo formation on top, microlonies on bottom
[2] = microorganism the targeting peptide binds, binding in aqueous buffers varied by peptide solubility
[3] = microorganism(s) the targeting peptide binds, binding in aqueous buffers depending on peptide solubility
For Organism, effect (morphology, biofilm and growth disruption) in this document: test concentration or dose not given here.
For Organism, effect in this document: test concentration or dose not given here.

## ALDCSEQSVILWYETILDKIVGVIK [PF-028]
S. epidermidis
  Organism, effect: S. epidermidis (M)
MRSA
  Organism, effect: MRSA (R)
[1]; [2]
  Target(s): S. epidermidis and M. luteus and MRSA
C. jeikeium
  Organism, effect: C. jeikeium (M)
microorganisms
  Activities: G B

## PF-011: peptide having multiple activities (chain 1 MFCYYKQHKGDNFSIEEVKNIIADNEMKVN; chain 2 MFCYYKQHKGDNFSIEEVKNIIADNEMKVN; Peptide with targeting and/or antimicrobial activity)
MRSA
  Organism, effect: MRSA (R)
[1]; [2]
  Target(s): M. luteus; also recorded: E. coli; also recorded: P. aeruginosa; also recorded: S. pneumoniae; also recorded: C. jeikeium
C. jeikeium
  Organism, effect: C. jeikeium (C)
microorganisms
  Activities: G B

## PF-032 (RIVVPAHQSNMASTPNLSITP; Peptide with targeting and/or antimicrobial activity)
S. epidermidis
  Organism, effect: S. epidermidis (S)
C. jeikeium
  Organism, effect: C. jeikeium (C)

## PF-046: peptide having multiple activities (chain 1 LDFYLTKHLTLML; chain 2 LDFYLTKHLTLML; Peptide with targeting and/or antimicrobial activity)
S. epidermidis
  Organism, effect: S. epidermidis (C)
MRSA
  Organism, effect: MRSA (R)
[1]; [2]
  Target(s): E. coli; also recorded: E. faecalis; also recorded: C. jeikeium
C. jeikeium
  Organism, effect: C. jeikeium (R)
microorganisms
  Activities: G B

## PF-048: peptide having multiple activities (chain 1 LYFAFKKYQERVNQAPNIEY; chain 2 LYFAFKKYQERVNQAPNIEY; Peptide with targeting and/or antimicrobial activity)
S. epidermidis
  Organism, effect: S. epidermidis (D)
MRSA
  Organism, effect: MRSA (W)
[1]; [2]
  Target(s): S. epidermidis and M. luteus and E. coli and MRSA and C. jeikeium and C. jejuni
C. jeikeium
  Organism, effect: C. jeikeium (S)
microorganisms
  Activities: G B

## PF-065: peptide having multiple activities (LEKNTRDNYFIHAIDRIYINTSKGLFPESELVAWG; Peptide with targeting and/or antimicrobial activity)
S. epidermidis
  Organism, effect: S. epidermidis (D)
MRSA
  Organism, effect: MRSA (R)
[1]; [2]
  Target(s): M. luteus and E. coli and P. aeruginosa and C. albicans and MRSA and S. pneumoniae and C. jeikeium and C. jejuni
C. jeikeium
  Organism, effect: C. jeikeium (A)
microorganisms
  Activities: G B

## PF-099: peptide having multiple activities (EIIAYLEGRFANA; Peptide with targeting and/or antimicrobial activity)
S. epidermidis
  Organism, effect: S. epidermidis (D)
[1]; [3]
  Target(s): S. epidermidis; also recorded: M. luteus; also recorded: E. coli; also recorded: C. jeikeium
C. jeikeium
  Organism, effect: C. jeikeium (C)
microorganisms
  Activities: G B

## PF-129: peptide having multiple activities (MKLLARDPWVCAWNDIW; Peptide with targeting and/or antimicrobial activity)
S. epidermidis
  Organism, effect: S. epidermidis (M)
[1]; [3]
  Target(s): S. epidermidis and MRSA and E. faecalis and C. jeikeium and C. jejuni
C. jeikeium
  Organism, effect: C. jeikeium (R)
microorganisms
  Activities: G B

## PF-153: peptide having multiple activities (GILARADCSQIA; Peptide with targeting and/or antimicrobial activity)
S. epidermidis
  Organism, effect: S. epidermidis (M)
[1]; [3]
  Target(s): M. luteus and P. mirabilis and E. coli and MRSA
C. jeikeium
  Organism, effect: C. jeikeium (C)
microorganisms
  Activities: G B

## PF-173: peptide having multiple activities (AGRTAIVQGGG; Peptide with targeting and/or antimicrobial activity)
S. epidermidis
  Organism, effect: S. epidermidis (A)
[1]; [3]
  Target(s): S. epidermidis; also recorded: M. luteus; also recorded: P. mirabilis; also recorded: E. coli; also recorded: P. aeruginosa; also recorded: C. albicans; also recorded: C. jeikeium; also recorded: C. jejuni
C. jeikeium
  Organism, effect: C. jeikeium (D)
microorganisms
  Activities: G B

## PF-186: peptide having multiple activities (DADKNLSLERDRFAWRVAAP; Peptide with targeting and/or antimicrobial activity)
S. epidermidis
  Organism, effect: S. epidermidis (C)
[1]; [3]
  Target(s): S. epidermidis and M. luteus and E. coli and P. aeruginosa and MRSA and C. jeikeium
C. jeikeium
  Organism, effect: C. jeikeium (A)
microorganisms
  Activities: G B

## PF-190: peptide having multiple activities (HFILRKPLLFMIHSLKTGPLDRF; Peptide with targeting and/or antimicrobial activity)
S. epidermidis
  Organism, effect: S. epidermidis (C)
C. jeikeium
  Organism, effect: C. jeikeium (R)
microorganisms
  Activities: G B

## PF-191: peptide having multiple activities (QFCNFAWLFLASNNAQVSALA; Peptide with targeting and/or antimicrobial activity)
S. epidermidis
  Organism, effect: S. epidermidis (A)
MRSA
  Organism, effect: MRSA (H)
[1]; [3]
  Target(s): E. coli; also recorded: P. aeruginosa; also recorded: C. jejuni
C. jeikeium
  Organism, effect: C. jeikeium (R)
microorganisms
  Activities: G B

## PF-196: peptide having multiple activities (TTARYIRRQCHTSITPLSQG; Peptide with targeting and/or antimicrobial activity)
S. epidermidis
  Organism, effect: S. epidermidis (C)
C. jeikeium
  Organism, effect: C. jeikeium (R)
microorganisms
  Activities: G B

## PF-203: peptide having multiple activities (SWKCHHLAI; Peptide with targeting and/or antimicrobial activity)
S. epidermidis
  Organism, effect: S. epidermidis (A)
C. jeikeium
  Organism, effect: C. jeikeium (R)
microorganisms
  Activities: G B

## PF-208: peptide having multiple activities (DAYHCHLVRSPDAHDLSMRIGFV; Peptide with targeting and/or antimicrobial activity)
S. epidermidis
  Organism, effect: S. epidermidis (D)
[1]; [3]
  Target(s): S. epidermidis and C. albicans and MRSA and S. pneumoniae and E. faecalis and C. jeikeium and C. jejuni
C. jeikeium
  Organism, effect: C. jeikeium (A)
microorganisms
  Activities: G B

## PF-622: peptide having multiple activities (TREDVFSVRLINNIVNKQA; Peptide with targeting and/or antimicrobial activity)
E. faecalis
  Organism, effect: E. faecalis (D)
S. epidermidis
  Organism, effect: S. epidermidis (D)
MRSA
  Organism, effect: MRSA (D)
S. pneumoniae
  Organism, effect: S. pneumoniae (M)
[1]
  Target(s) (microorganisms bound by the targeting peptide): S. epidermidis; also recorded: P. aeruginosa; also recorded: C. albicans; also recorded: S. pneumoniae; also recorded: E. faecalis; also recorded: C. jeikeium
C. jeikeium
  Organism, effect: C. jeikeium (D)
microorganisms
  Activities: G B

## PF-623: peptide having multiple activities (VLFAVYLGALDWLFSWLTQKM; Peptide with targeting and/or antimicrobial activity)
E. faecalis
  Organism, effect: E. faecalis (D)
S. epidermidis
  Organism, effect: S. epidermidis (M)
MRSA
  Organism, effect: MRSA (D)
S. pneumoniae
  Organism, effect: S. pneumoniae (D)
[1]
  Target(s) (microorganisms bound by the targeting peptide): S. epidermidis and P. aeruginosa and MRSA and S. pneumoniae and E. faecalis and C. jeikeium
C. jeikeium
  Organism, effect: C. jeikeium (R)
microorganisms
  Activities: G B

## PF-657 (chain 1 YVANYTITQFGRDFDDRLAVAIHFA; chain 2 YVANYTITQFGRDFDDRLAVAIHFA; Peptide with targeting and/or antimicrobial activity)
E. faecalis
  Organism, effect (morphology, biofilm and growth disruption): E. faecalis (D)
S. epidermidis
  Organism, effect (morphology, biofilm and growth disruption): S. epidermidis (C)
MRSA
  Organism, effect (morphology, biofilm and growth disruption): MRSA (D)
S. pneumoniae
  Organism, effect (morphology, biofilm and growth disruption): S. pneumoniae (H)
[1]
  Target(s) (microorganisms bound by the targeting peptide): Mycobacteria spp
C. jeikeium
  Organism, effect (morphology, biofilm and growth disruption): C. jeikeium (D)

## PF-685 (chain 1 PTLWLACL; chain 2 PTLWLACL; Peptide with targeting and/or antimicrobial activity)
E. faecalis
  Organism, effect (morphology, biofilm and growth disruption): E. faecalis (R)
S. epidermidis
  Organism, effect (morphology, biofilm and growth disruption): S. epidermidis (M)
MRSA
  Organism, effect (morphology, biofilm and growth disruption): MRSA (M)
S. pneumoniae
  Organism, effect (morphology, biofilm and growth disruption): S. pneumoniae (M)
[1]
  Target(s) (microorganisms bound by the targeting peptide): Mycobacteria spp
C. jeikeium
  Organism, effect (morphology, biofilm and growth disruption): C. jeikeium (R)
